Test results: patent US9346761B2, “Arginine methyltransferase inhibitors and uses thereof” (Epizyme, Inc., priority 2013, dated 2016)

Key:
Full-length human PRMT6 = target: T1, Full-length human PRMT6 (Homo sapiens, UniProt Q96LA8); assay: PRMT6 biochemical assay (3H-SAM Flashplate, peptide substrate)
T1 construct: Flag-PRMT6-His was eluted with 200 ug/ml FLAG peptide in the same buffer; made in house; host or cells: HEK 293F cells (BacMam virus, pFastBacMam)
Summary of the method: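 Read-out is 3H-methylated histone H4 (36-50) peptide bound to streptavidin Flashplates after a cold-SAM stop. Baculovirus-expressed Flag-PRMT6-His met compound for 30 min at room temperature before SAM and peptide; Bicine pH 7.6 buffer. IC50 fitted to % inhibition normalized to SAH (min) and DMSO (max).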

[1] = target: T2, Full-length human PRMT1 isoform 1 (Homo sapiens, UniProt Q99873); assay: PRMT1 biochemical assay (3H-SAM Flashplate, peptide substrate)
T2 construct: GST-tagged PRMT1; made in house; host or cells: High Five insect cells (baculovirus, pFastBacI)
T2 sequence (Q99873 with tags, fused parts or gaps): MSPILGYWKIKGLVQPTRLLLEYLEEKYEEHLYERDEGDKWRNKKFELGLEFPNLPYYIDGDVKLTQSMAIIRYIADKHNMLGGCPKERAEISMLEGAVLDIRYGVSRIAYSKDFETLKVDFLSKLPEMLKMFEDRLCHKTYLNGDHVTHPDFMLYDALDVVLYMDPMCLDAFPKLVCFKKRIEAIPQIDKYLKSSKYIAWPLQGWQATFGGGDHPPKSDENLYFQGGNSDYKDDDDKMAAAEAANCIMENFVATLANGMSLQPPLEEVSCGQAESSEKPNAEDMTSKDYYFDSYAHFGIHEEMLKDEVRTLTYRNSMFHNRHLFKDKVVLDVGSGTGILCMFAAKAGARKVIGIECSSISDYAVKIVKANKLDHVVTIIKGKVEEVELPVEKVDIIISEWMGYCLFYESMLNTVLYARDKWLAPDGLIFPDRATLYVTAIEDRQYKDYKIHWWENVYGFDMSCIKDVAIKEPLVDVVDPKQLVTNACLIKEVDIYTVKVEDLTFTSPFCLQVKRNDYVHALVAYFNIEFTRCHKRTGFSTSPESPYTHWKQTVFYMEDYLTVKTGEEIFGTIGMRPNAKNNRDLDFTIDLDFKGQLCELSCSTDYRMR
Summary of the method: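 Tritiated methyl transfer from 3H-SAM onto biotinylated peptide, captured on streptavidin Flashplates and counted. Baculovirus-expressed GST-PRMT1 and compound were preincubated 30 min at room temperature in Bicine buffer pH 7.6. Cold SAM at 300 uM final ended the reaction.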

T1 sequence (Q96LA8 with tags, fused parts or gaps): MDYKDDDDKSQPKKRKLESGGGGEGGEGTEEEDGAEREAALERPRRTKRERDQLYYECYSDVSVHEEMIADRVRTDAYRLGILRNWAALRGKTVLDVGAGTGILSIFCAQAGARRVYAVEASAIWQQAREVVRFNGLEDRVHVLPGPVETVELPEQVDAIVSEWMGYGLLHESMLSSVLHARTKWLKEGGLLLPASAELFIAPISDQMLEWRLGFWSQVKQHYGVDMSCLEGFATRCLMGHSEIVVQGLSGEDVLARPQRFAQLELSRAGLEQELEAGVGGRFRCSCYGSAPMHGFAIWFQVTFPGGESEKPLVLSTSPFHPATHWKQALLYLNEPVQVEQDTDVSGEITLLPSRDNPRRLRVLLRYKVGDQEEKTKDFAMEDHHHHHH

Structure (SMILES)	IC50 (Full-length human PRMT6)	IC50 [1]
CNCCN(C)Cc1cn(C2CC2)nc1-c1ccc(F)cc1 [Compound 13]	0.101 to 1 µM	1.01 to 3 µM
CNCCN(C)Cc1cnn(C2CC2)c1-c1ccc(F)cc1 [Compound 14]	< 0.1 µM	0.101 to 1 µM
CNCCN(C)Cc1cn(C(C)C)nc1-c1ccc(F)cc1 [Compound 15]	0.101 to 1 µM	3.01 to 10 µM
CNCCN(C)Cc1cnn(C(C)C)c1-c1ccc(F)cc1 [Compound 16]	< 0.1 µM	1.01 to 3 µM
CNCCN(C)Cc1cn[nH]c1-c1ccc(C#N)cc1 [Compound 17]	< 0.1 µM	< 0.1 µM
CNCCN(C)Cc1cn[nH]c1-c1cc(F)cc(F)c1 [Compound 18]	< 0.1 µM	< 0.1 µM
CCCc1ccc(-c2n[nH]cc2CN(C)CCNC)cc1 [Compound 20]	< 0.1 µM	< 0.1 µM
CNCCN(C)Cc1c[nH]nc1-c1cccc([N+](=O)[O-])c1 [Compound 21]	< 0.1 µM	< 0.1 µM
CNCCN(C)Cc1c[nH]nc1-c1cccc(C#N)c1 [Compound 22]	< 0.1 µM	0.101 to 1 µM
CNCCN(C)Cc1c[nH]nc1-c1ccccc1OC [Compound 23]	0.101 to 1 µM	0.101 to 1 µM
CNCCN(C)Cc1c[nH]nc1-c1cccc(OC)c1 [Compound 24]	< 0.1 µM	< 0.1 µM
CNCCN(C)Cc1c[nH]nc1-c1ccc(OC)cc1 [Compound 25]	< 0.1 µM	< 0.1 µM
CNCCN(C)Cc1c[nH]nc1-c1cccc(O)c1 [Compound 26]	< 0.1 µM	0.101 to 1 µM
CNCCN(C)Cc1c[nH]nc1-c1ccc(O)cc1 [Compound 27]	< 0.1 µM	< 0.1 µM
CNCCN(C)Cc1c[nH]nc1-c1ccc(CO)cc1 [Compound 28]	< 0.1 µM	< 0.1 µM
CNCCN(C)Cc1c[nH]nc1-c1ccc(C)cc1C [Compound 29]	< 0.1 µM	0.101 to 1 µM
CNCCN(C)Cc1cn(CCCC(O)CO)nc1-c1ccc(F)cc1 (centres unmarked) [Compound 30]	0.101 to 1 µM	3.01 to 10 µM

Structure (SMILES)	IC50 (Full-length human PRMT6)	IC50 [1]
CNCCN(C)Cc1cnn(CCCC(O)CO)c1-c1ccc(F)cc1 (centres unmarked) [Compound 31]	0.101 to 1 µM	0.101 to 1 µM
CNCCN(C)Cc1c[nH]nc1-c1ccc(N)cc1 [Compound 33]	< 0.1 µM	0.101 to 1 µM
CNCCN(C)Cc1c[nH]nc1-c1ccc(Oc2ccccc2)cc1 [Compound 37]	< 0.1 µM	< 0.1 µM
CNCCN(C)Cc1c[nH]nc1-c1ccccc1C(F)(F)F [Compound 38]	0.101 to 1 µM	1.01 to 3 µM
CNCCN(C)Cc1c[nH]nc1-c1ccccc1OC(F)(F)F [Compound 40]	0.101 to 1 µM	0.101 to 1 µM
CCNC(=O)c1cccc(-c2n[nH]cc2CN(C)CCNC)c1 [Compound 43]	< 0.1 µM	0.101 to 1 µM
CNCCN(C)Cc1c[nH]nc1-c1ccc(C(F)(F)F)cc1 [Compound 174]	< 0.1 µM	< 0.1 µM
CC(C)CC(=O)N1CCN(c2ccc(-c3n[nH]cc3CN(C)CCN)cc2)CC1 [Compound 180]	< 0.1 µM	0.101 to 1 µM
CNCCN(C)Cc1c[nH]nc1-c1ccc(Cl)c(F)c1 [Compound 182]	< 0.1 µM	< 0.1 µM
CN(CCNC1CC1)Cc1c[nH]nc1-c1ccc(C#N)cc1 [Compound 183]	0.101 to 1 µM	1.01 to 3 µM
CN(CCN(C)C1CC1)Cc1c[nH]nc1-c1ccc(C#N)cc1 [Compound 184]	1.01 to 3 µM	1.01 to 3 µM
CN(CCN1CCC1)Cc1c[nH]nc1-c1ccc(C#N)cc1 [Compound 185]	0.101 to 1 µM	1.01 to 3 µM
CC(C)Oc1cccc(-c2n[nH]cc2CN(C)CCN)c1 [Compound 187]	< 0.1 µM	0.101 to 1 µM
CC(C)Oc1cc(-c2n[nH]cc2CN(C)CCN)ccc1F [Compound 188]	< 0.1 µM	0.101 to 1 µM
CCC(=O)N1CCN(c2ccc(-c3n[nH]cc3CN(C)CCN)cc2)CC1 [Compound 189]	< 0.1 µM	0.101 to 1 µM
CC(C)CN1C(=O)COc2ccc(-c3n[nH]cc3CN(C)CCN)cc21 [Compound 191]	0.101 to 1 µM	0.101 to 1 µM
CN(CCN)Cc1c[nH]nc1-c1ccc2c(c1)OCC(=O)N2C [Compound 192]	< 0.1 µM	0.101 to 1 µM
